# Data taken from patent US10689362B2, “Quinoxaline compounds as type III receptor tyrosine kinase inhibitors” (Development Center for Biotechnology, priority 2016, dated 2020).
# How the values were obtained:
# [1] = molecular target: PDGFRβ kinase (Homo sapiens (Human), UniProt P09619); assay: PDGFRβ kinase assay (radiometric); format: biochemical; settings: bound
# Description: (§1) Inhibition of PDGFRβ kinase activity by a test compound disclosed herein was estimated by radiometric assay. Standard assay conditions were 10 ng of recombinant PDGFRβ (SignalChem) with 2 μg of substrate Poly-(Glu 4:Tyr 1) (sigma) in the assay buffer in kinase reaction buffer (10 mM MOPS pH 7.0, 0.21 mM EDTA, 0.5% glycerol, 0.001% Brij-35, 0.01 2-mercaptoehtanol, 1 mg/ml BSA, 10 mM MgCl2, 10 mM MnCl2, 10 μM ATP, 0.1 μCi per well [^33P]-ATP), in the presence of test compound (diluted in final concentration of 4% DMSO) or DMSO control, with a final volume of 25 μl for 60 minutes at 30° C. The reaction was stopped by adding 5 μl of 3% phosphoric acid solution. Total reaction solution was then harvested onto a filter plate (UniFilter-96 GF/B, PerkinElmer), and washed 20 times for 5 min with dH2O. 30 μl of MicroScint™-20 Cocktail (PerkinElmer) was added to dried plate. The plate was sealed and counted using a TopCount scintillation detector (PerkinElmer). […] The IC50 values of quinoxaline compounds of this invention against PDGFRβ kinase were determined using the GraphPad Prism 5 software.
# (§2) The IC50 values for selected quinoxaline compounds of this invention against CSF-1R, c-KIT, FLT3, and PDGFRβ are summarized in Table 3.
# [2] = molecular target: c-KIT kinase (Homo sapiens (Human), UniProt P10721); assay: c-KIT kinase assay (radiometric); format: biochemical
# Chain of c-KIT kinase (P10721 26-976): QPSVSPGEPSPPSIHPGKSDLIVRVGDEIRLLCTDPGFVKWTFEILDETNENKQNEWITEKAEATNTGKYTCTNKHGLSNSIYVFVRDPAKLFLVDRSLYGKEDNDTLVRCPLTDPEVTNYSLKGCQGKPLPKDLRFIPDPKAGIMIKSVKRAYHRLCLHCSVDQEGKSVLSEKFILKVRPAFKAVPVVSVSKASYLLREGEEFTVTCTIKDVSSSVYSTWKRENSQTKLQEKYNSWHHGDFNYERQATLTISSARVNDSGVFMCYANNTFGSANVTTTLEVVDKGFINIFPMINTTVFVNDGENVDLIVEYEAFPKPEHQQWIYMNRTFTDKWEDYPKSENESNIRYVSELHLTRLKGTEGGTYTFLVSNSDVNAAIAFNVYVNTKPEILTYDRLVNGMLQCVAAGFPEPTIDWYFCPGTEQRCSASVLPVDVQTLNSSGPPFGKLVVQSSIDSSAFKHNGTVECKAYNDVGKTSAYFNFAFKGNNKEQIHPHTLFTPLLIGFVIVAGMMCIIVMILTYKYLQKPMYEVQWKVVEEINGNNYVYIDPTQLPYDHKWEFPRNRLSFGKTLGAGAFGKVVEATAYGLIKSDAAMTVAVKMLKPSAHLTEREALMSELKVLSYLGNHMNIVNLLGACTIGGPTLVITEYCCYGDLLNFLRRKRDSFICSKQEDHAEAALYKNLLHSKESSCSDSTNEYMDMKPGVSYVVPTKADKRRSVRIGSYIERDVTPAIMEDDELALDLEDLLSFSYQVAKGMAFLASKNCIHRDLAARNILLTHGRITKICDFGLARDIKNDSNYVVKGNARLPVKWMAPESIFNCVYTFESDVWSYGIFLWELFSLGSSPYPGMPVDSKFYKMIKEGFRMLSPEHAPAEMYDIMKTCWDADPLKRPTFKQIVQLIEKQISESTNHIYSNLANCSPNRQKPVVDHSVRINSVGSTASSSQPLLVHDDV
# Description: as §1, with “of c-KIT” for “of PDGFRβ”, “were 20” for “were 10”, “recombinant c-Kit” for “recombinant PDGFRβ”, “well [^33P]-ATP,” for “well [^33P]-ATP),”, “against c-KIT” for “against PDGFRβ”
# as §2
# [3] = tested on: THP-1 human acute monocytic leukemia cell harboring NRAS G12D mutation; assay: THP-1 cell proliferation assay (counter screen, CellTiter-96); format: cell-based; settings: Cytotoxicity, THP-1 cells (counter screen), 72 hours
# Description: (§3) Inhibition of cell growth by compounds was measured using CellTiter™-96 assay. The cytotoxicity of compounds was evaluated in CSF-1-dependent M-NFS-60 mouse myeloid leukemia cell, FLT3 signal addicted MV4-11 human acute myeloid leukemia cell with FLT3-ITD mutation, c-KIT signal addicted Kasumi-1 human acute myeloid leukemia cell with c-KIT N822K activating mutation, and THP-1 human acute monocytic leukemia cell harboring NRAS G12D mutation.
# THP-1 human acute monocytic leukemia cells harbor NRAS G12D mutation, which renders cell proliferate independently of class III RTKs signal. […] Cells were allowed to expand until reaching saturation at which point they were subcultured or harvested for assay use.
# (§4) M-NFS-60, Kasumi-1, MV4-11 and THP-1 cells were seeded into 96-well plates at 2000, 64000, 6500, and 5000 cells/well, respectively, and incubated at 37° C., 5% CO2 overnight. Then, these seeded cells were treated with increasing concentrations of the test compounds and incubated for another 72 hours. At the end of the incubation, CellTiter96® AQueous One Solution Reagent (Promega) was added and incubated for 4 hours. Cell viability was determined by measuring absorbance at 490 nm using EMax® microplate reader (Molecular Devices).
# [4] = tested on: CSF-1-dependent M-NFS-60 mouse myeloid leukemia cell; assay: M-NFS-60 cell proliferation assay (CellTiter-96); format: cell-based; settings: Cytotoxicity, M-NFS-60 cells, 72 hours
# Description: as §3
# The compounds disclosed herein were tested in M-NFS-60 cell proliferation assay to determine their cellular potency against CSF-1R. […] Inhibition of CSF-1R kinase activity will cause reduced growth and/or cell death. […] Cells were allowed to expand until reaching saturation at which point they were subcultured or harvested for assay use.
# as §4
# [5] = tested on: MV4-11 human acute myeloid leukemia cell with FLT3-ITD mutation; assay: MV4-11 cell proliferation assay (CellTiter-96); format: cell-based; settings: Cytotoxicity, MV4-11 cells, 72 hours
# Description: as §3
# (§5) The compounds disclosed herein were tested in MV4-11 cell proliferation assay to determine their cellular potency against FLT3 kinase. MV4-11 human acute myeloid leukemia cells harbor ligand-independent FLT3-ITD activating mutation, which render its proliferation FLT3-ITD dependent. Inhibition of FLT3 kinase activity will cause reduced growth and/or cell death. […] Cells were allowed to expand until reaching saturation at which point they were subcultured or harvested for assay use.
# as §4
# [6] = molecular target: CSF-1R kinase (Homo sapiens (Human), UniProt P07333); assay: CSF-1R kinase assay (AlphaScreen); format: biochemical
# Chain of CSF-1R kinase (P07333 20-972): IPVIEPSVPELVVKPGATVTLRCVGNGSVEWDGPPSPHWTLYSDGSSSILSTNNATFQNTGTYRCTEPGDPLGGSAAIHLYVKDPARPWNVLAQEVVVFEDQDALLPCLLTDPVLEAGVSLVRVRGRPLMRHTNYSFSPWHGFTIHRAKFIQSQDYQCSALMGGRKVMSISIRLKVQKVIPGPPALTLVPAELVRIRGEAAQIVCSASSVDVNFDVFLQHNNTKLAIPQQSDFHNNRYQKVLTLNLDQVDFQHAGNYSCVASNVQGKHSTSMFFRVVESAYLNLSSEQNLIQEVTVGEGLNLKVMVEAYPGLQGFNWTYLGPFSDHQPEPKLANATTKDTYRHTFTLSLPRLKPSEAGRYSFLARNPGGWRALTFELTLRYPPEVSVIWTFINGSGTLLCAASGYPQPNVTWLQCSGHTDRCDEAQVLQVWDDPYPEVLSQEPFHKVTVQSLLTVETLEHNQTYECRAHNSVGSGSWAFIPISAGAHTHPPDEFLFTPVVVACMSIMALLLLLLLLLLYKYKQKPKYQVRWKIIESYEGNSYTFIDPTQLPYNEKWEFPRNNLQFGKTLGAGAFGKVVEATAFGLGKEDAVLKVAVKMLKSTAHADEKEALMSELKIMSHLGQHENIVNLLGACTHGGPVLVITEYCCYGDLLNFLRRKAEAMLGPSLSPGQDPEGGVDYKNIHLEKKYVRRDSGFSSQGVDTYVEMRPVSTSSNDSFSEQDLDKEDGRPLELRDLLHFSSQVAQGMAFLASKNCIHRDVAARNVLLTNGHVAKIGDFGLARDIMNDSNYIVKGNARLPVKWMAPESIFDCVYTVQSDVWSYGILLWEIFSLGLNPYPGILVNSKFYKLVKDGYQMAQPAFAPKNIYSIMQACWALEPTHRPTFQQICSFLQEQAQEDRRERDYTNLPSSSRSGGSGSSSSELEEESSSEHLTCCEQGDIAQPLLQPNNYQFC
# Description: Inhibition of CSF-1R kinase activity by a test compound disclosed herein was estimated by AlphaScreen (PerkinElmer). […] Reactions were incubated at 30° C. for 45 min and stopped by adding 5 μL of 50 mM EDTA. Analysis of resulting product using an AlphaScreen kit, and counted with Enspire Alpha (PerkinElmer). […] The IC50 values of quinoxaline compounds of this invention against CSF-1R kinase were determined using the GraphPad Prism 5 software.
# [7] = tested on: Kasumi-1 human acute myeloid leukemia cell with c-KIT N822K activating mutation; assay: Kasumi-1 cell proliferation assay (CellTiter-96); format: cell-based; settings: Cytotoxicity, Kasumi-1 cells, 72 hours
# Description: as §3
# as §5, with “Kasumi” for “MV4-11”, “c-KIT” for “FLT3”, “N822K c-KIT” for “FLT3-ITD”, “thus the cell” for “which render its”, “relied on c-KIT signal.” for “FLT3-ITD dependent.”
# as §4
# [8] = molecular target: FLT3 kinase (Homo sapiens (Human), UniProt P36888); assay: FLT3 kinase assay (radiometric); format: biochemical
# Chain of FLT3 kinase (P36888 27-993): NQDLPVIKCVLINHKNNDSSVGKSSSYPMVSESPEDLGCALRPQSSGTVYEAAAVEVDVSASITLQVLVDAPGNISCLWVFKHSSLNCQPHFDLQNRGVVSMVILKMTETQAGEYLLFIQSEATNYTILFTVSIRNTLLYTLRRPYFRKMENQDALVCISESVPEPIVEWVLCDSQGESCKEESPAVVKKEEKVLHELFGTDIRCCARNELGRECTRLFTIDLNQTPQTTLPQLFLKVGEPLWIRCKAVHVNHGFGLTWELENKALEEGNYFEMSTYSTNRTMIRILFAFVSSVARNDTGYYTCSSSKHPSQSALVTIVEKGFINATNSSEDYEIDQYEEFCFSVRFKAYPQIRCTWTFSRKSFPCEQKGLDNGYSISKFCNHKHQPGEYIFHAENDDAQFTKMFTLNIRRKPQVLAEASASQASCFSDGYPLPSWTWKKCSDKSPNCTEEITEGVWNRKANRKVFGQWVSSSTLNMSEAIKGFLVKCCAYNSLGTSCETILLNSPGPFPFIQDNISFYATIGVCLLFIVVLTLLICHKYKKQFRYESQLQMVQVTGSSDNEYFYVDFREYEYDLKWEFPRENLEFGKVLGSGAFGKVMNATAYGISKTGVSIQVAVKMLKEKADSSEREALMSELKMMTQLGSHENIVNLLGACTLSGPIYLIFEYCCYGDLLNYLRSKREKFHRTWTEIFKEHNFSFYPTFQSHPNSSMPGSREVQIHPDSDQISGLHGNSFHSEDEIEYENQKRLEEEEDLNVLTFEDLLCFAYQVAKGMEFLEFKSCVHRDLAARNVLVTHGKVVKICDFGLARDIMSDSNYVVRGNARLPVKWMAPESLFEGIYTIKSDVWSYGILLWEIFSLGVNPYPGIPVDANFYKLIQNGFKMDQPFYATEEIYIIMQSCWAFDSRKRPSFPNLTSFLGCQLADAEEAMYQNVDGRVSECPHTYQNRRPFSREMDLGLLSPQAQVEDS
# Description: Inhibition of FLT3 kinase activity by a test compound disclosed herein was estimated by radiometric assay. Standard assay conditions were 5 ng of recombinant FLT3 (Thermo Fisher) with 2 μg of substrate Poly-(Glu 4:Tyr 1) (sigma) in the assay buffer in kinase reaction buffer (10 mM MOPS pH 7.0, 0.21 mM EDTA, 0.5% glycerol, 0.001% Brij-35, 0.01 2-mercaptoehtanol, 1 mg/ml BSA, MgCl2 10 mM, 10 μM ATP, 0.1 μCi per well [^33P]-ATP, in the presence of test compound (diluted in final concentration of 4% DMSO) or DMSO control, with a final volume of 25 μl for 60 minutes at 30° C. The reaction was stopped by adding 5 μl of 3% phosphoric acid solution. Total reaction solution was then harvested onto a filter plate (UniFilter-96 GF/B, PerkinElmer), and washed 20 times for 5 min with dH2O. 30 μl of MicroScint™-20 Cocktail (PerkinElmer) was added to dried plate. The plate was sealed and counted using a TopCount scintillation detector (PerkinElmer). […] The IC50 values of quinoxaline compounds of this invention against FLT3 kinase were determined using the GraphPad Prism 5 software.
# as §2
# Chain of PDGFRβ kinase (P09619 33-1106): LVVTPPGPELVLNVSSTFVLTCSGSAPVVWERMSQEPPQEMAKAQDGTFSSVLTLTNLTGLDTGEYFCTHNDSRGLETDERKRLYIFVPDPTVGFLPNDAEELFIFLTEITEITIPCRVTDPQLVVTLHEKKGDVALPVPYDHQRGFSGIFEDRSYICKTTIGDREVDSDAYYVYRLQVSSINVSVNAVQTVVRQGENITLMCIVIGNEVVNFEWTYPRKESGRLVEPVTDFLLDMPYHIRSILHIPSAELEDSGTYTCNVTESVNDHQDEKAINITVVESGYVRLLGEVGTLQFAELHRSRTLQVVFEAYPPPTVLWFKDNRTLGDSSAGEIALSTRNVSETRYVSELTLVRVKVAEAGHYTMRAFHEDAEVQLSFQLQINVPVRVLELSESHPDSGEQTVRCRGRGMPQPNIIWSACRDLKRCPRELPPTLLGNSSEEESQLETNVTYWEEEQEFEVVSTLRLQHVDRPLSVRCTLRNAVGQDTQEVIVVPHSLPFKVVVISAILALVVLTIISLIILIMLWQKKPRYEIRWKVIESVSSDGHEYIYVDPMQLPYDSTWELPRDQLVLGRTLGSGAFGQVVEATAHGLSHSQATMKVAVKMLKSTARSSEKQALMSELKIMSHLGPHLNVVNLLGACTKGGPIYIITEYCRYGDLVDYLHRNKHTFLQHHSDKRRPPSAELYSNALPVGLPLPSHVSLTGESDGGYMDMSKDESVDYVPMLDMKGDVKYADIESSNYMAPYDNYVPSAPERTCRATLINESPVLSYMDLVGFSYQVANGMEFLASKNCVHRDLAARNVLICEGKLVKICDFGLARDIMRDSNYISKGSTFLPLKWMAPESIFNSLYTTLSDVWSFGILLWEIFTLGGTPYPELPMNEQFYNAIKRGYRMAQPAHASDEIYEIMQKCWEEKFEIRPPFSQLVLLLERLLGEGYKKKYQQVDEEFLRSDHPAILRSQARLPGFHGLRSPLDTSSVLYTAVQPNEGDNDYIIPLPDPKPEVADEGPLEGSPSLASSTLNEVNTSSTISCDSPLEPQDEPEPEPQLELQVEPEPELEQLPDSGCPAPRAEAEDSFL
SMILES,IC50 [1] [µM],IC50 ([2]; class symbol) [µM],IC50 ([6]; class symbol) [µM],IC50 ([8]; bound) [µM],IC50 ([6]; bound) [µM],IC50 [3] [µM],IC50 [4] [µM],IC50 [5] [µM],IC50 [7] [µM],IC50 ([2]; bound) [µM],IC50 ([8]; class symbol) [µM]
"COc1ccc(COc2ccc(Nc3ccc4ncc(OC)nc4c3)cc2OC)cc1 [Example 5, 3-methoxy-N-(3-methoxy-4-((4-methoxybenzyl)oxy)phenyl)quinoxalin-6-amine]",> 1,–,0.1 to 0.3,> 1,–,> 10,1 to 10,1 to 10,1 to 10,> 1,–
"CCOc1ccc(COc2ccc(Nc3ccc4ncc(OC)nc4c3C#N)cc2OC)cc1 [Example 20, 6-((4-((4-ethoxybenzyl)oxy)-3-methoxyphenyl)amino)-3-methoxyquinoxaline-5-carbonitrile]",> 1,< 0.1,0.3 to 1,> 1,–,> 10,> 10,> 10,1 to 10,–,–
"COc1ccc(COc2ccc(Nc3ccc4ncc(OC(C)C)nc4c3C#N)cc2OC)cn1 [Example 119, 3-isopropoxy-6-((3-methoxy-4-((6-methoxypyridin-3-yl)methoxy)phenyl)amino)quinoxaline-5-carbonitrile]",> 1,–,0.1 to 0.3,–,–,> 10,1 to 10,1 to 10,> 10,> 1,0.1 to 0.3
"COc1cc(Nc2ccc3ncc(N4CCOCC4)nc3c2C#N)ccc1OCc1ccc(N(C)C)nc1 [Example 104, 6-((4-((6-(dimethylamino)pyridin-3-yl)methoxy)-3-methoxyphenyl)amino)-3-morpholinoquinoxaline-5-carbonitrile]",> 1,< 0.1,< 0.1,> 1,–,> 10,1 to 10,1 to 10,1 to 10,–,–
"COc1ccc(CNc2ccc(Nc3ccc4ncc(N5CCOCC5)nc4c3C#N)cc2OC)cc1 [Example 39, 6-((3-methoxy-4-((4-methoxybenzyl)amino)phenyl)amino)-3-morpholinoquinoxaline-5-carbonitrile]",> 1,0.1 to 0.3,–,> 1,> 1,> 10,> 10,1 to 10,0.3 to 1,–,–

# Further lines, with some results ahead:
IC50 [1] [µM],IC50 ([2]; class symbol) [µM],IC50 ([6]; class symbol) [µM],IC50 ([8]; bound) [µM],IC50 ([6]; bound) [µM],SMILES,IC50 [3] [µM],IC50 [4] [µM],IC50 [5] [µM],IC50 [7] [µM],IC50 ([2]; bound) [µM],IC50 ([8]; class symbol) [µM]
> 1,0.1 to 0.3,0.3 to 1,> 1,–,"COc1cc(Nc2ccc3ncc(N4CCOCC4)nc3c2C#N)ccc1OCc1ccncc1 [Example 46, 6-((3-methoxy-4-(pyridin-4-ylmethoxy)phenyl)amino)-3-morpholinoquinoxaline-5-carbonitrile]",> 10,1 to 10,1 to 10,1 to 10,–,–
> 1,0.1 to 0.3,0.3 to 1,> 1,–,"C#CCOc1ccc(Nc2ccc3ncc(N4CCOCC4)nc3c2C#N)cc1OC [Example 92, 6-((3-methoxy-4-(prop-2-yn-1-yloxy)phenyl)amino)-3-morpholinoquinoxaline-5-carbonitrile]",> 10,1 to 10,1 to 10,0.3 to 1,–,–
> 1,0.3 to 1,–,> 1,> 1,"COc1cc(Nc2ccc3ncc(N4CCOCC4)nc3c2C#N)ccc1OCc1nccn1C [Example 48, 6-((3-methoxy-4-((1-methyl-1H-imidazol-2-yl)methoxy)phenyl)amino)-3-morpholinoquinoxaline-5-carbonitrile]",> 10,> 10,> 10,1 to 10,–,–
> 1,< 0.1,< 0.1,> 1,–,"COc1cc(Nc2ccc3ncc(N4CCOCC4)nc3c2C#N)ccc1OCc1cc(C)on1 [Example 61, 6-((3-methoxy-4-((5-methylisoxazol-3-yl)methoxy)phenyl)amino)-3-morpholinoquinoxaline-5-carbonitrile]",> 10,> 10,> 10,0.3 to 1,–,–
> 1,0.3 to 1,–,> 1,> 1,"COc1cc(Nc2ccc3ncc(N4CCOCC4)nc3c2C#N)ccc1OCC1CCCO1 (stereo not shown) [Example 123, 6-((3-methoxy-4-((tetrahydrofuran-2-yl)methoxy)phenyl)amino)-3-morpholinoquinoxaline-5-carbonitrile]",> 10,> 10,1 to 10,1 to 10,–,–
> 1,0.1 to 0.3,0.1 to 0.3,> 1,–,"COc1cc(Nc2ccc3ncc(N4CCOCC4)nc3c2C#N)ccc1OCc1ccoc1 [Example 121, 6-((4-(furan-3-ylmethoxy)-3-methoxyphenyl)amino)-3-morpholinoquinoxaline-5-carbonitrile]",> 10,1 to 10,1 to 10,0.3 to 1,–,–
